From US9359298B2, “Cajanine structure analogous compound, preparation method and use” (INSTITUTE OF MEDICINAL BIOTECHNOLOGY, CHINESE ACADEMY OF …, priority 2011, dated 2016)
≈ marks a conversion by molar mass, not a printed value. Read-outs that look alike come from different tables or passages of the source.

How the values were obtained:
Type in all cases: cell-based
HCV = assay: Anti-hepatitis C virus (HCV) activity assay (HCV RNA in Huh7.5 cells); details: for EC50: Hepatitis C virus, Huh7.5, 72 h, read-out: HCV EC50; for anti-HCV viral activity: statement in words
Procedure: Inoculate Huh7.5 cells into 96-well plates to a density of 3×10^4 cells/cm^2, culture for 24h, infect the cells with 45 IU/cell HCV supernatant, meanwhile, add drug solutions or solvent control for treatment.

Coxsackie virus B6 = assay: Coxsackie virus activity assay (CPE in Vero cells); details: for IC50: Vero
[1] = tested on: Influenza A virus (hanfang359/95); assay: Determination of anti-influenza virus activity (CPE in MDCK cells); details: for IC50: Influenza A virus, MDCK, 36 h; for anti-influenza virus activities compared with the lead compound cajanine: statement in words
PC12 cells [2] = assay: Neuroprotective activity assay, rotenone injury to PC12 cells (MTT); details: for viability at 10 µM: Rattus norvegicus, PC-12, 48 h, read-out: rotenone (surviving PC12 cells, MTT 570 nm); for protective effect on rotenone injury to PC12 cells: statement in words
Procedure: (§1) Discard the original culture media from confluent monolayers of PC12 cells (simulated neuronal cells), add DMEM complete medium with 5% FBS, 5% horse serum gently beat upon the cells with a pipette to completely disperse them, inoculate 100 μl cell suspension at a density of […] per well to 96 hole plates treated with poly-lysine (0.1 mg/ml) in advance, culture for 24h. Divide the experimenting cells into control group, model group and dosing groups. Add complete medium to the control group. Model groups includes rotenone group and serum-deprived group, add rotenone to the corresponding modules with a final concentration of 4 μM rotenone to take effect on the cells for 48 h, add serum-deprived groups with serum-free DMEM medium to take effect on the cells for 48 h. Dosing groups also includes two groups, one using rotenone module as model, another using serum-deprived module as model, and both add in 10 μM test compounds during modeling. 48h later, add 10 μl 5 mg/ml MTT, subsequently discard the supernatant 4h later and add in 150 μl DMSO, measure 570 nm absorbance to represent the numbers of surviving cells.

HIV-1 III B virus = assay: Anti-HIV activity assay (P24 antigen in MT-4 cells); details: for IC50: Human immunodeficiency virus 1, MT4, 96 h, read-out: HIV IC50; for anti-HIV viral activity: statement in words
PC12 cells [3] = assay: Neuroprotective activity assay, serum-deprived injury to PC12 cells (MTT); details: for viability at 10 µM: Rattus norvegicus, PC-12, 48 h, read-out: serum-deprived (surviving PC12 cells, MTT 570 nm); for protective effect on serum-deprived injury to PC12 cells: statement in words
Procedure: as §1

[4] = Huh7.5 cells, 72 h, HCV RNA by RT-PCR, Reed-Muench
[5] = read-out: COX-B6 IC50, Vero cells, about 100TCID50, CPE, Reed-Muench
[6] = 10 μM test compound, 4 μM rotenone, 48 h, Control 100.0 ± 8.9, Model 73.2 ± 7.8
[7] = MT-4 cells, HIV-1 III B 100TCID50, 96 h, P24 antigen
[8] = 10 μM test compound, 48 h, Control 100.0 ± 9.2, Model 69.3 ± 4.1

Compound | EC50 (HCV; [4]) [µg/mL] | IC50 (Coxsackie virus B6; [5]) [µg/mL] | IC50 [1] [µg/mL] | viability at 10 µM (PC12 cells [2]; [6]) [%] | IC50 (HIV-1 III B virus; [7]) [µg/mL] | viability at 10 µM (PC12 cells [3]; [8]) [%] | further results
COC(=O)c1c(/C=C/c2ccccc2)cc(OC)c(CC=C(C)C)c1O [Compound 8, methyl 2-hydroxy-3-isopentenyl-4-methoxy-6-[(E)-styryl]-benzoate] | 0.79 (≈ 2.24 µM) | 3.56 (≈ 10.1 µM) | 0.69 (≈ 1.96 µM) | 78.9 ± 5.7 | 1.06 (≈ 3.01 µM) | 76.6 ± 5.8 | anti-HCV viral activity (HCV): stronger anti-HIV, HCV viral activities; anti-HIV viral activity (HIV-1 III B virus): stronger anti-HIV, HCV viral activities
COc1cc(/C=C/c2ccc(C)cc2)cc(O)c1CC=C(C)C [Compound 10g, 2-isopentenyl-3-methoxy-5-[(E)-4′-methylstyryl]phenol] | 3.09 (≈ 10 µM) | 1.18 (≈ 3.83 µM) | > 6.19 | 80.3 ± 3.2 | – | 81.3 ± 2.5 | IC50 (HIV-1 III B virus): 1.18 µg/mL (≈ 3.83 µM)
COc1cc(/C=C/c2ccc(F)cc2)cc(O)c1CC=C(C)C [Compound 10a, 2-isopentenyl-3-methoxy-5-[(E)-(4′-fluorostyryl)]phenol] | – | – | > 0.69 | – | – | – | EC50 (HCV): 1.6 µg/mL (≈ 5.12 µM); IC50 (Coxsackie virus B6; read-out: COX-B6 IC50): 6.32 µg/mL (≈ 20.2 µM); anti-influenza virus activities compared with the lead compound cajanine [1]: significantly stronger than the lead compound cajanine; viability at 10 µM (PC12 cells [2]): 79.8 ± 5.6%; IC50 (HIV-1 III B virus): 2.02 µg/mL (≈ 6.47 µM); viability at 10 µM (PC12 cells [3]): 78.2 ± 4.1%
COc1cccc(/C=C/c2cc(O)c(CC=C(C)C)c(OC)c2)n1 [10f′] | 0.61 (≈ 1.87 µM) | 2.31 (≈ 7.1 µM) | 0.23 (≈ 0.707 µM) | 79.1 ± 5.6 | 1.04 (≈ 3.2 µM) | 80.5 ± 3.2 | –
COC(=O)c1c(/C=C/c2cccc(OC)n2)cc(OC)c(CC=C(C)C)c1O [Compound 8y, methyl 2-hydroxy-3-isopentenyl-4-methoxy-6-[(E)-2-(6-methoxy-pyrid-2-yl)ethenyl]benzoate] | 4.33 (≈ 11.3 µM) | 7.12 (≈ 18.6 µM) | 2.14 (≈ 5.58 µM) | 48.9 ± 6.5 | 6.8 (≈ 17.7 µM) | 49.8 ± 2.6 | –
COC(=O)c1c(/C=C/c2ccccc2)cc(OC)c(C/C=C(\C)CCC=C(C)C)c1O [Compound 8o, methyl 2-hydroxy-3-(3′,7′-dimethyloctadien-2′,6′-yl)-4-methoxy-6-[(E)-styryl]benzoate] | 0.92 (≈ 2.19 µM) | 2.36 (≈ 5.61 µM) | 0.82 (≈ 1.95 µM) | 70.6 ± 6.3 | 2.96 (≈ 7.04 µM) | 69.3 ± 5.6 | anti-influenza virus activities compared with the lead compound cajanine [1]: significantly stronger than the lead compound cajanine
COc1cc(/C=C/c2cc(O)cc(O)n2)c(C(=O)O)c(O)c1CC=C(C)C [1a′, 2-hydroxy-3-isopentenyl-4-methoxy-6-[(E)-2-(4,6-dihydroxy-2-yl)ethenyl]benzoic acid] | 0.94 (≈ 2.53 µM) | 0.36 (≈ 0.969 µM) | 0.19 (≈ 0.512 µM) | 87.2 ± 4.3 | 1.38 (≈ 3.72 µM) | 88.7 ± 4.9 | anti-HCV viral activity (HCV): stronger anti-HIV, HCV viral activities; anti-HIV viral activity (HIV-1 III B virus): stronger anti-HIV, HCV viral activities
COc1cc(/C=C/c2ccccn2)cc(O)c1CC=C(C)C [Compound 10x, 2-isopentenyl-3-methoxy-5-[(E)-2-(pyrid-2-yl)ethenyl]phenol] | 0.93 (≈ 3.15 µM) | 0.42 (≈ 1.42 µM) | 0.09 (≈ 0.305 µM) | 78.9 ± 5.4 | 1.09 (≈ 3.69 µM) | 78.9 ± 4.6 | anti-influenza virus activities compared with the lead compound cajanine [1]: significantly stronger than the lead compound cajanine
COc1cc(/C=C/c2ccccc2)c(C(=O)O)c(OC(=O)NN)c1CC=C(C)C [Compound 29b, 2-Hydrazinoformyloxy-3-isopentenyl-4-methoxy-6-[(E)-styryl]benzoic acid] | – | – | 1.21 (≈ 3.05 µM) | – | – | – | EC50 (HCV): 1.36 µg/mL (≈ 3.43 µM); IC50 (Coxsackie virus B6; read-out: COX-B6 IC50): 0.67 µg/mL (≈ 1.69 µM); viability at 10 µM (PC12 cells [2]): 78.9 ± 5.6%; IC50 (HIV-1 III B virus): 1.88 µg/mL (≈ 4.74 µM); viability at 10 µM (PC12 cells [3]): 74.5 ± 4.6%
COc1cc(/C=C/c2cccs2)cc(O)c1CC=C(C)C [Compound 10j] | 0.87 (≈ 2.9 µM) | 1.56 (≈ 5.19 µM) | > 18.5 | 84.6 ± 5.2 | 0.66 (≈ 2.2 µM) | 82.3 ± 2.5 | anti-HCV viral activity (HCV): stronger anti-HIV, HCV viral activities; protective effect on rotenone injury to PC12 cells (PC12 cells [2]): the strongest activities; anti-HIV viral activity (HIV-1 III B virus): stronger anti-HIV, HCV viral activities; protective effect on serum-deprived injury to PC12 cells (PC12 cells [3]): the strongest activities
COc1cc(/C=C/c2cccc(O)n2)cc(O)c1CC=C(C)C [10g′] | 2.3 (≈ 7.39 µM) | 0.12 (≈ 0.385 µM) | 0.87 (≈ 2.79 µM) | 63.5 ± 2.1 | 3.93 (≈ 12.6 µM) | 71 ± 5.2 | –
C/C(=C\c1cc(O)cc(O)c1)c1cc(O)cc(O)c1 [Compound 21h, 1,3-dihydroxy-5-[(E)-2-(3,5-dihydroxyphenyl)propen-1-yl]benzene] | 4.46 (≈ 17.3 µM) | 6.98 (≈ 27 µM) | 5.84 (≈ 22.6 µM) | 71.2 ± 3.8 | 5.28 (≈ 20.4 µM) | 74.8 ± 2.6 | –
COc1cc(/C=C(\C)c2cc(O)cc(O)c2)cc(OC)c1 [Compound 21g, 1,3-dimethoxy-5-[(E)-2-(3,5-dihydroxyphenyl)propen-1-yl]benzene] | 0.9 (≈ 3.14 µM) | 6.84 (≈ 23.9 µM) | 4.25 (≈ 14.8 µM) | 82.3 ± 3.1 | 1.27 (≈ 4.44 µM) | 80.2 ± 1.5 | –
COc1cc(/C=C/c2cc(O)c(CC=C(C)C)c(OC)c2)nc(OC)c1 [10d′] | 0.65 (≈ 1.83 µM) | 0.35 (≈ 0.985 µM) | 0.14 (≈ 0.394 µM) | 94.3 ± 5.4 | 1.3 (≈ 3.66 µM) | 91.2 ± 3.2 | –
CC(C)=CCc1c(O)cc(/C=C/c2ccccc2)c(C(=O)O)c1O [Compound 33, 2,4-dihydroxy-3-isopentenyl-6-[(E)-styryl]benzoic acid] | – | – | – | – | – | – | HCV EC50 (HCV; [4]): 1.55 µg/mL; COX-B6 IC50 (Coxsackie virus B6; Vero cells, about 100TCID50, CPE, Reed-Muench): 2.31 µg/mL; Influenza A virus (hanfang359/95) IC50 [1]: 2.35 µg/mL; rotenone (surviving PC12 cells, MTT 570 nm) (PC12 cells [2]; [6]): 75.6 ± 2.1; HIV IC50 (HIV-1 III B virus; [7]): 2.01 µg/mL; serum-deprived (surviving PC12 cells, MTT 570 nm) (PC12 cells [3]; [8]): 16.8 ± 0.4
COc1cc(/C=C(\C)c2ccccc2)c(C(=O)O)c(O)c1CC=C(C)C [Compound 1i, 2-hydroxy-3-isopentenyl-4-methoxy-6-[(E)-2-phenylpropen-1-yl]benzoic acid] | 0.59 (≈ 1.67 µM) | 6.25 (≈ 17.7 µM) | > 0.82 | 55.1 ± 4.8 | 1.31 (≈ 3.72 µM) | 28.3 ± 7.6 | anti-HCV viral activity (HCV): stronger anti-HIV, HCV viral activities; anti-HIV viral activity (HIV-1 III B virus): stronger anti-HIV, HCV viral activities
COc1cc(/C=C/c2ccccc2)c(C(=O)O)c(OC(=N)N)c1CC=C(C)C [Compound 27b, 2-iso-ureido-3-isopentenyl-4-methoxy-6-[(E)-styryl]benzoic acid] | 1.83 (≈ 4.81 µM) | 1.24 (≈ 3.26 µM) | 2.14 (≈ 5.63 µM) | 92.3 ± 2.6 | 4.91 (≈ 12.9 µM) | 91.5 ± 6.1 | protective effect on rotenone injury to PC12 cells (PC12 cells [2]): the strongest activities; protective effect on serum-deprived injury to PC12 cells (PC12 cells [3]): the strongest activities
COc1cc(/C=C/c2cc(O)ccn2)cc(O)c1CC=C(C)C [10a′, 2-isopentenyl-3-methoxy-5-[(E)-2-(4-hydroxypyrid-2-yl)ethenyl]phenol] | 1.41 (≈ 4.53 µM) | 0.41 (≈ 1.32 µM) | 0.17 (≈ 0.546 µM) | 89.2 ± 3.2 | 1.33 (≈ 4.27 µM) | 86.3 ± 1.2 | –
Oc1cc(O)cc(/C=C/c2cc(O)c(O)c(O)c2)c1 [Compound 21k, 1,3-dihydroxy-5-[(E)-3,4,5-trihydroxystyryl]benzene] | 8.36 (≈ 32.1 µM) | 0.78 (≈ 3 µM) | 0.54 (≈ 2.07 µM) | 71.3 ± 8 | 10.3 (≈ 39.7 µM) | 74.5 ± 5.8 | anti-influenza virus activities compared with the lead compound cajanine [1]: significantly stronger than the lead compound cajanine
